The values below are quoted from earlier work in patent US11633409B2, “Solid preparation comprising dutasteride and method for preparing same” (JW PHARMACEUTICAL CORPORATION, priority 2017, dated 2023).

Like-named read-outs stand apart in the source and are kept apart here.

Experiment in series [1]: not given
The source holds these as a separate data set.

For the compound `C[C@]12C=CC(=O)NC1CCC1C2CC[C@@]2(C)C1CC[C@@H]2C(=O)Nc1cc(C(F)(F)F)ccc1C(F)(F)F` (stereo partly shown) [dutasteride, Dutasteride], the equilibrium solubility by setting is: (in Capmul MCM NF) 2.75 g/100 g; (in PEG 400) 0.39 g/100 g; (in Transcutol) 2.41 g/100 g; (in ethanol) 4.40 g/100 g; (in isopropanol) 3.06 g/100 g; (in propylene glycol) 1.34 g/100 g. Also, the solubility in water entry in series [1] is given as “insoluble in water”.
